Numbers after ± are expanded uncertainties.

This is an account of results in the NIST ThermoML archive (doi:10.1016/j.jct.2009.06.011).

The series is described as follows: activity coefficient (dimensionless); of the first substance listed, at infinite dilution; xn = mol fraction of the nth substance listed. The note with it: 101 kPa, Liquid, Chromatography, x1 = 0.

With `C#CCCCC` [1-hexyne] + CCCC[n+]1ccc(C)cc1.O=S(=O)([N-]S(=O)(=O)C(F)(F)F)C(F)(F)F, the activity coefficient was found to be 2.37 ± 0.16 (298.15 K); 2.39 ± 0.16 (308.15 K); 2.42 ± 0.16 (318.15 K); 2.44 ± 0.17 (328.15 K); 2.46 ± 0.17 (338.15 K); 2.48 ± 0.17 (348.15 K). For the same compound, the activity coefficient was 2.5 ± 0.17 (358.15 K) and 2.52 ± 0.17 (368.15 K).
In the case of `C1CCCCC1` [cyclohexane] + CCCC[n+]1ccc(C)cc1.O=S(=O)([N-]S(=O)(=O)C(F)(F)F)C(F)(F)F, the activity coefficient reads like this: (298.15 K) 8.93 ± 0.61; (308.15 K) 8.34 ± 0.57; (318.15 K) 7.76 ± 0.53; (328.15 K) 7.31 ± 0.5; (338.15 K) 6.96 ± 0.47; (348.15 K) 6.54 ± 0.45. Further, the activity coefficient was found to be 6.23 ± 0.42 (358.15 K) and 5.94 ± 0.4 (368.15 K).
For `CCO` [ethanol] + CCCC[n+]1ccc(C)cc1.O=S(=O)([N-]S(=O)(=O)C(F)(F)F)C(F)(F)F, the activity coefficient reads like this: (298.15 K) 1.91 ± 0.13; (308.15 K) 1.72 ± 0.12; (318.15 K) 1.56 ± 0.1; (328.15 K) 1.43 ± 0.09; (338.15 K) 1.31 ± 0.09; (348.15 K) 1.21 ± 0.08. Further, the activity coefficient stood at 1.12 ± 0.07 (358.15 K) and 1.04 ± 0.07 (368.15 K).
As to `C=CCCCC` [hex-1-ene] + CCCC[n+]1ccc(C)cc1.O=S(=O)([N-]S(=O)(=O)C(F)(F)F)C(F)(F)F, the activity coefficient reads like this: (298.15 K) 7.4 ± 0.5; (308.15 K) 7.11 ± 0.48; (318.15 K) 6.82 ± 0.47; (328.15 K) 6.58 ± 0.45; (338.15 K) 6.37 ± 0.43; (348.15 K) 6.17 ± 0.42. In addition, the activity coefficient runs as follows: (358.15 K) 5.99 ± 0.41; (368.15 K) 5.82 ± 0.4.
With `Cc1ccc(C)cc1` [1,4-dimethylbenzene] + CCCC[n+]1ccc(C)cc1.O=S(=O)([N-]S(=O)(=O)C(F)(F)F)C(F)(F)F, the activity coefficient turned out to be 1.35 ± 0.09 (318.15 K); 1.38 ± 0.09 (328.15 K); 1.42 ± 0.09 (338.15 K); 1.45 ± 0.1 (348.15 K); 1.48 ± 0.1 (358.15 K); 1.51 ± 0.1 (368.15 K).
Turning to `C#CCCCCC` [1-heptyne] + CCCC[n+]1ccc(C)cc1.O=S(=O)([N-]S(=O)(=O)C(F)(F)F)C(F)(F)F, the activity coefficient came to 3.2 ± 0.22 (298.15 K); 3.23 ± 0.22 (308.15 K); 3.24 ± 0.22 (318.15 K); 3.26 ± 0.22 (328.15 K); 3.27 ± 0.22 (338.15 K); 3.28 ± 0.22 (348.15 K). For the same compound, the activity coefficient was determined as 3.29 ± 0.22 (358.15 K) and 3.3 ± 0.22 (368.15 K).
For the compound `CCCCCCCC` [octane] + CCCC[n+]1ccc(C)cc1.O=S(=O)([N-]S(=O)(=O)C(F)(F)F)C(F)(F)F, the activity coefficient (298.15 K) was 27.9 ± 1.9; the activity coefficient (308.15 K) was determined as 25.8 ± 1.8; the activity coefficient (318.15 K) stood at 23.7 ± 1.6; the activity coefficient (328.15 K) came out at 22.1 ± 1.5; the activity coefficient (338.15 K) stood at 20.7 ± 1.4; the activity coefficient (348.15 K) was determined as 19.3 ± 1.3. The activity coefficient (358.15 K) was 18.1 ± 1.2 and the activity coefficient (368.15 K) is 17.2 ± 1.2.
For `CO` [methanol] + CCCC[n+]1ccc(C)cc1.O=S(=O)([N-]S(=O)(=O)C(F)(F)F)C(F)(F)F, the activity coefficient is, setting by setting: (298.15 K) 1.53 ± 0.1; (308.15 K) 1.39 ± 0.09; (318.15 K) 1.27 ± 0.08; (328.15 K) 1.17 ± 0.07; (338.15 K) 1.08 ± 0.07; (348.15 K) 1 ± 0.06. Further, the activity coefficient turned out to be 0.935 ± 0.059 (358.15 K) and 0.876 ± 0.056 (368.15 K).
For `CCCCCCCCC` [nonane] + CCCC[n+]1ccc(C)cc1.O=S(=O)([N-]S(=O)(=O)C(F)(F)F)C(F)(F)F, the activity coefficient came out at 38.9 ± 2.7 (298.15 K); 35.5 ± 2.4 (308.15 K); 32.3 ± 2.2 (318.15 K); 29.8 ± 2 (328.15 K); 27.6 ± 1.9 (338.15 K); 25.6 ± 1.8 (348.15 K). Besides, the activity coefficient by setting is: (358.15 K) 23.8 ± 1.6; (368.15 K) 22 ± 1.5.
In the case of `CCCCCC` [hexane] + CCCC[n+]1ccc(C)cc1.O=S(=O)([N-]S(=O)(=O)C(F)(F)F)C(F)(F)F, the activity coefficient (298.15 K) came out at 15.4 ± 1.1; the activity coefficient (308.15 K) was 14.5 ± 1; the activity coefficient (318.15 K) was 13.5 ± 0.9; the activity coefficient (328.15 K) came to 12.7 ± 0.9; the activity coefficient (338.15 K) was determined as 12 ± 0.8; the activity coefficient (348.15 K) was 11.4 ± 0.8. The activity coefficient came to 10.8 ± 0.7 (358.15 K) and 10.3 ± 0.7 (368.15 K).
For `C#CCCC` [1-pentyne] + CCCC[n+]1ccc(C)cc1.O=S(=O)([N-]S(=O)(=O)C(F)(F)F)C(F)(F)F, the activity coefficient runs as follows: (298.15 K) 1.79 ± 0.12; (308.15 K) 1.82 ± 0.12; (318.15 K) 1.84 ± 0.12; (328.15 K) 1.87 ± 0.13; (338.15 K) 1.89 ± 0.13; (348.15 K) 1.91 ± 0.13. The activity coefficient runs as follows: (358.15 K) 1.93 ± 0.13; (368.15 K) 1.95 ± 0.13.
For `C#CCCCCCC` [1-octyne] + CCCC[n+]1ccc(C)cc1.O=S(=O)([N-]S(=O)(=O)C(F)(F)F)C(F)(F)F, the activity coefficient runs as follows: (298.15 K) 4.43 ± 0.3; (308.15 K) 4.42 ± 0.3; (318.15 K) 4.4 ± 0.3; (328.15 K) 4.38 ± 0.3; (338.15 K) 4.37 ± 0.3; (348.15 K) 4.36 ± 0.3. Moreover, the activity coefficient is, setting by setting: (358.15 K) 4.34 ± 0.3; (368.15 K) 4.33 ± 0.29.
As to `CCOCC` [diethyl ether] + CCCC[n+]1ccc(C)cc1.O=S(=O)([N-]S(=O)(=O)C(F)(F)F)C(F)(F)F, the activity coefficient (298.15 K) came to 2.07 ± 0.14; the activity coefficient (308.15 K) is 2.08 ± 0.14; the activity coefficient (318.15 K) was 2.08 ± 0.14; the activity coefficient (328.15 K) stood at 2.08 ± 0.14; the activity coefficient (338.15 K) was 2.08 ± 0.14; the activity coefficient (348.15 K) came out at 2.09 ± 0.14. Moreover, the activity coefficient runs as follows: (358.15 K) 2.09 ± 0.14; (368.15 K) 2.09 ± 0.14.
For `C1CCCCCC1` [cycloheptane] + CCCC[n+]1ccc(C)cc1.O=S(=O)([N-]S(=O)(=O)C(F)(F)F)C(F)(F)F, the activity coefficient by setting is: (298.15 K) 10.9 ± 0.7; (308.15 K) 10.1 ± 0.7; (318.15 K) 9.45 ± 0.64; (328.15 K) 8.9 ± 0.61; (338.15 K) 8.39 ± 0.57; (348.15 K) 7.9 ± 0.54. Besides, the activity coefficient is, setting by setting: (358.15 K) 7.46 ± 0.51; (368.15 K) 7.14 ± 0.49.
For the compound `C=CCCCCCC` [oct-1-ene] + CCCC[n+]1ccc(C)cc1.O=S(=O)([N-]S(=O)(=O)C(F)(F)F)C(F)(F)F, the activity coefficient is, setting by setting: (298.15 K) 13.8 ± 0.9; (308.15 K) 13 ± 0.9; (318.15 K) 12.4 ± 0.8; (328.15 K) 11.8 ± 0.8; (338.15 K) 11.3 ± 0.8; (348.15 K) 10.9 ± 0.7. In addition, the activity coefficient (358.15 K) was determined as 10.4 ± 0.7 and the activity coefficient (368.15 K) stood at 10.1 ± 0.7.
On to `CCCCC` [pentane] + CCCC[n+]1ccc(C)cc1.O=S(=O)([N-]S(=O)(=O)C(F)(F)F)C(F)(F)F, for which the activity coefficient (298.15 K) was found to be 12.9 ± 0.9; the activity coefficient (308.15 K) worked out at 12 ± 0.8; the activity coefficient (318.15 K) worked out at 11.2 ± 0.8; the activity coefficient (328.15 K) turned out to be 10.5 ± 0.7; the activity coefficient (338.15 K) stood at 9.89 ± 0.67; the activity coefficient (348.15 K) was 9.37 ± 0.64. Also, the activity coefficient by setting is: (358.15 K) 8.88 ± 0.61; (368.15 K) 8.47 ± 0.58.
In the case of `COC(C)(C)C` [2-methoxy-2-methylpropane] + CCCC[n+]1ccc(C)cc1.O=S(=O)([N-]S(=O)(=O)C(F)(F)F)C(F)(F)F, the activity coefficient was determined as 1.97 ± 0.13 (298.15 K); 2 ± 0.14 (308.15 K); 2.03 ± 0.14 (318.15 K); 2.06 ± 0.14 (328.15 K); 2.08 ± 0.14 (338.15 K); 2.1 ± 0.14 (348.15 K). Also, the activity coefficient was found to be 2.12 ± 0.14 (358.15 K) and 2.15 ± 0.15 (368.15 K).
Regarding `CCCCCCC` [heptane] + CCCC[n+]1ccc(C)cc1.O=S(=O)([N-]S(=O)(=O)C(F)(F)F)C(F)(F)F, the activity coefficient amounted to 20.4 ± 1.4 (298.15 K); 18.9 ± 1.3 (308.15 K); 17.7 ± 1.2 (318.15 K); 16.6 ± 1.1 (328.15 K); 15.6 ± 1.1 (338.15 K); 14.7 ± 1 (348.15 K). The activity coefficient (358.15 K) was 13.9 ± 1 and the activity coefficient (368.15 K) was determined as 13.2 ± 0.9.
Consider `Cc1cccc(C)c1` [1,3-dimethylbenzene] + CCCC[n+]1ccc(C)cc1.O=S(=O)([N-]S(=O)(=O)C(F)(F)F)C(F)(F)F, for which the activity coefficient runs as follows: (318.15 K) 1.35 ± 0.09; (328.15 K) 1.38 ± 0.09; (338.15 K) 1.42 ± 0.09; (348.15 K) 1.45 ± 0.1; (358.15 K) 1.48 ± 0.1; (368.15 K) 1.51 ± 0.1.
Turning to `CCCO` [propan-1-ol] + CCCC[n+]1ccc(C)cc1.O=S(=O)([N-]S(=O)(=O)C(F)(F)F)C(F)(F)F, the activity coefficient is, setting by setting: (298.15 K) 2.28 ± 0.16; (308.15 K) 2.04 ± 0.14; (318.15 K) 1.84 ± 0.12; (328.15 K) 1.67 ± 0.11; (338.15 K) 1.53 ± 0.1; (348.15 K) 1.41 ± 0.09. The activity coefficient is, setting by setting: (358.15 K) 1.3 ± 0.08; (368.15 K) 1.2 ± 0.08.
Consider `C1CCCCCCC1` [cyclooctane] + CCCC[n+]1ccc(C)cc1.O=S(=O)([N-]S(=O)(=O)C(F)(F)F)C(F)(F)F, for which the activity coefficient runs as follows: (298.15 K) 13.9 ± 1; (308.15 K) 12.9 ± 0.9; (318.15 K) 12 ± 0.8; (328.15 K) 11.2 ± 0.8; (338.15 K) 10.4 ± 0.7; (348.15 K) 9.81 ± 0.67. In addition, the activity coefficient is, setting by setting: (358.15 K) 9.26 ± 0.63; (368.15 K) 8.74 ± 0.6.
